Common to all, as to assay: Whole-cell binding assay, competition with 125I-GCG
Common to all, as to set-up: V5 (C); 6×His (C); expressed in transfected cells; host or cells: CHO-K1

The target of assay [1] is GCGR (Homo sapiens, UniProt P47871, D195A/Q142A/R199A). The settings on record: GCGR Q142A/D195A/R199A, CHO-K1. In outline: (§1)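 CHO-K1 cells transiently transfected with WT or mutant receptor constructs, washed in F-12 with 0.1% BSA or casein/33 mM HEPES and incubated 2 h at 37 °C. Bound radioactivity counted after Triton lysis; data normalized to WT and fitted to a three-parameter logistic equation.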

In assay [2] the target is GCGR (Homo sapiens, UniProt P47871, Q131A). The settings on record: GCGR Q131A, CHO-K1. The gist of the method:
as §1

Assay [3] concerns the target GCGR (Homo sapiens, UniProt P47871, Q293A). To be noted: GCGR Q293A, CHO-K1. In outline: as §1
Assay [4] addresses GCGR (Homo sapiens, UniProt P47871, W215A). To be noted: GCGR W215A, CHO-K1. In outline: as §1
Assay [5] has as its target GCGR (Homo sapiens, UniProt P47871, W87A). The settings on record: GCGR W87A, CHO-K1. The gist of the method:
as §1

The target in assay [6] is GCGR (Homo sapiens, UniProt P47871, Y145A). To be noted: GCGR Y145A, CHO-K1. In outline: as §1
Assay [7] deals with GCGR (Homo sapiens, UniProt P47871, Y202A). The settings on record: GCGR Y202A, CHO-K1. The gist of the method:
as §1

[8] abbreviates: read-out: binding pIC50 (converted).

GCGR (Homo sapiens, UniProt P47871, D195A/Q142A/R199A), sequence (P47871 26-477 Q142A/D195A/R199A): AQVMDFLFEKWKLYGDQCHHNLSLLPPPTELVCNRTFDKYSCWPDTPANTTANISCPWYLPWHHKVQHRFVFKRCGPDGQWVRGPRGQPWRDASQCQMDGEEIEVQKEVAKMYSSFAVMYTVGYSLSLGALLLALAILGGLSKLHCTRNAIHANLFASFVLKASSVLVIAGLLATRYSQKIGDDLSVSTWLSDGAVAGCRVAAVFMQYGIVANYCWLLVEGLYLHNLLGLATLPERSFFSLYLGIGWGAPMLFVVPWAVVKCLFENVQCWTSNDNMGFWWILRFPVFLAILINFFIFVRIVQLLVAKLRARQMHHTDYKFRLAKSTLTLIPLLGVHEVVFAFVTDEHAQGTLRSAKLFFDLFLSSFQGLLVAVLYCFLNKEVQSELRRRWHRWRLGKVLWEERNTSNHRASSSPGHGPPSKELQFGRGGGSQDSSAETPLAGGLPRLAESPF
GCGR (Homo sapiens, UniProt P47871, Q293A), sequence (P47871 26-477 Q293A): as the sequence (P47871 26-477 Q142A/D195A/R199A) above, with A117Q, A170D, A174R, Q268A counted along it
GCGR (Homo sapiens, UniProt P47871, W215A), sequence (P47871 26-477 W215A): as the sequence (P47871 26-477 Q142A/D195A/R199A) above, with A117Q, A170D, A174R, W190A counted along it
GCGR (Homo sapiens, UniProt P47871, W87A), sequence (P47871 26-477 W87A): as the sequence (P47871 26-477 Q142A/D195A/R199A) above, with W62A, A117Q, A170D, A174R counted along it
GCGR (Homo sapiens, UniProt P47871, Y145A), sequence (P47871 26-477 Y145A): as the sequence (P47871 26-477 Q142A/D195A/R199A) above, with A117Q, Y120A, A170D, A174R counted along it
GCGR (Homo sapiens, UniProt P47871, Y202A), sequence (P47871 26-477 Y202A): as the sequence (P47871 26-477 Q142A/D195A/R199A) above, with A117Q, A170D, A174R, Y177A counted along it
GCGR (Homo sapiens, UniProt P47871, Q131A), sequence (P47871 26-477 Q131A): as the sequence (P47871 26-477 Q142A/D195A/R199A) above, with Q106A, A117Q, A170D, A174R counted along it

In the case of `CCCCCCCCCCCCCCCC(=O)N[C@@H](CCC(=O)NCCCC[C@H](NC(=O)[C@H](CC(=O)O)NC(=O)[C@H](CO)NC(=O)[C@@H](NC(=O)[C@H](Cc1ccccc1)NC(=O)[C@@H](NC(=O)CNC(=O)[C@H](CCC(N)=O)NC(=O)C(C)(C)NC(=O)[C@@H](N)Cc1c[nH]cn1)[C@@H](C)O)[C@@H](C)O)C(=O)N[C@@H](CO)C(=O)N[C@@H](CCCCN)C(=O)N[C@@H](Cc1ccc(O)cc1)C(=O)N[C@@H](CC(C)C)C(=O)N[C@@H](CC(=O)O)C(=O)N[C@@H](CCC(=O)O)C(=O)N[C@@H](CCCNC(=N)N)C(=O)N[C@@H](C)C(=O)N[C@@H](C)C(=O)N[C@@H](CCC(N)=O)C(=O)N[C@@H](CC(=O)O)C(=O)N[C@@H](Cc1ccccc1)C(=O)N[C@H](C(=O)N[C@@H](CCC(N)=O)C(=O)N[C@@H](Cc1c[nH]c2ccccc12)C(=O)N[C@@H](CC(C)C)C(=O)N[C@@H](CC(C)C)C(=O)N[C@@H](CC(=O)O)C(=O)NCC(=O)NCC(=O)N1CCC[C@H]1C(=O)N[C@@H](CO)C(=O)N[C@@H](CO)C(=O)NCC(=O)N[C@@H](C)C(=O)N1CCC[C@H]1C(=O)N1CCC[C@H]1C(=O)N1CCC[C@H]1C(=O)N[C@@H](CO)C(N)=O)C(C)C)C(=O)O` [Peptide 20], the “binding Span” value on GCGR [1] worked out at 24.37 ± 1.80 % WT; at GCGR [2], 32.87 ± 3.34 % WT; on GCGR [3], 135.17 ± 6.41 % WT; at GCGR [4], 7.72 ± 2.74 % WT; on GCGR [5], 4.68 ± 2.95 % WT; on GCGR [6], 4.34 ± 3.92 % WT. At GCGR [7], the “binding Span” value was determined as 5.12 ± 1.71 % WT. Besides, the IC50 on GCGR [1] (setting [8]) was 0.0302 µM; at GCGR [2] (setting [8]) it was 0.0692 µM; at GCGR [3] (setting [8]), 0.132 µM; on GCGR [4] (setting [8]) it was 0.145 µM; at GCGR [5] (setting [8]), 0.00151 µM; on GCGR [6] (setting [8]), 0.000457 µM. For the same compound, the IC50 at GCGR [7] (setting [8]) is 0.0186 µM.
